Here are results for 23 compounds from patent US10711007B2, “Selective inhibitors of protein arginine methyltransferase 5 (PRMT5)” (Prelude Therapeutics, Incorporated, priority 2018, dated 2020).

This experiment has as its target PRMT5/MEP50 complex (Homo sapiens (Human), UniProt O14744). In words: Biochemical assay: PRMT5/MEP50 methylation of histone H4 based AcH4-23, SPA readout. As to conditions: PRMT5/MEP50 2.5 nM, 300 nM AcH4-23, 1 μM 3H-SAM. How it is done:
Biochemical Assay Protocol
Compounds were solubilized and 3-fold diluted in 100% DMSO. […] Standard reactions were performed in a total volume of 30 μl in assay buffer, with 300 nM histone H4 based AcH4-23 (Anaspec: AS-65002) as substrate. To this was added the PRMT5/MEP50 complex diluted to provide a final assay concentration of 2.5 nM and the compounds were allowed to preincubate for 20 minutes at 37° C. The reaction was initiated by adding S-[3H-methyl]-adenosyl-L-methionine (PerkinElmer: NET155001MC) to final concentration of 1 μM. Following a 30 minutes incubation at 37° C., the reaction was stopped by adding 25 μL of 8M Guanidine HCl. Prepare streptavidin YSI SPA beads (Perkinelmer: RPNQ0012) at 0.3 mg/mL in assay buffer. To each reaction, add 150 μL of SPA beads suspension, and incubated while shaking at room temperature for 30 minutes. The plate was centrifuged at 100×g for 30 second before reading in a scintillation counter. IC50 values were determined by fitting the data to the standard 4 parameters with Hill Slope using GraphPad Prism software.

Counter-ions that a name gives are not always drawn.

Broadly, the IC50 is the point on the concentration scale where inhibition reaches its midpoint. Lower therefore signals inhibition by little substance.

Chain of PRMT5/MEP50 complex (O14744 whole entry): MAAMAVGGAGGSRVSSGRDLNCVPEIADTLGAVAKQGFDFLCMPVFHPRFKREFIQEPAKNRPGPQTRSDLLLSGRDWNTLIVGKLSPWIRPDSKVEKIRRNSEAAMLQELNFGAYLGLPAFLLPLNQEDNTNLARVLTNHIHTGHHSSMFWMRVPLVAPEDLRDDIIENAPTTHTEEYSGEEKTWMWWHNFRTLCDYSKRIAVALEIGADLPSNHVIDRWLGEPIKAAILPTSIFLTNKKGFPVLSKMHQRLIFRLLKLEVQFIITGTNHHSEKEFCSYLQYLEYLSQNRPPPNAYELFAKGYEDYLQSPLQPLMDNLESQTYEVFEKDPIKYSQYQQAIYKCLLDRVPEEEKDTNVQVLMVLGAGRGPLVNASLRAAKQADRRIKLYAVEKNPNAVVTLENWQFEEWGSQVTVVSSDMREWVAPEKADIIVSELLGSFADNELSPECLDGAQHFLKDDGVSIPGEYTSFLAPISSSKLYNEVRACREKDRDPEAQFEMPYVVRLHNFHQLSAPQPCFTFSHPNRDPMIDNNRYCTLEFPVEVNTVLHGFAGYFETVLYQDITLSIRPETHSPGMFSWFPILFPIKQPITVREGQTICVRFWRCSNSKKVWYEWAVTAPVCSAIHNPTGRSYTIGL
Chain of PRMT5/MEP50 complex (Q9BQA1 whole entry partner): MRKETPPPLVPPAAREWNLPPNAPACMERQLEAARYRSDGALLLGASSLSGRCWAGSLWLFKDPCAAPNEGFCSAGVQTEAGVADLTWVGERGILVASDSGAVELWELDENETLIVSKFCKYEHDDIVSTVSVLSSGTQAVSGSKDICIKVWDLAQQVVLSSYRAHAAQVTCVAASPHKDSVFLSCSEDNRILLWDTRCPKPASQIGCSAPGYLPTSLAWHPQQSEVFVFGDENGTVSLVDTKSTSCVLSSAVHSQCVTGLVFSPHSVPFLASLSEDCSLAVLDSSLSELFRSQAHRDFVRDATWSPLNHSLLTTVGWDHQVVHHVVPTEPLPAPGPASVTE

As for `Nc1ncnc2c1ccn2[C@@H]1O[C@H]([C@H]2OCc3cc(Cl)ccc32)[C@@H](O)[C@H]1O` [Example 1B, (2R,3R,4S,5S)-2-(4-amino-7H-pyrrolo[2,3-d]pyrimidin-7-yl)-5-((S)-5-chloro-1,3-dihydroisobenzofuran-1-yl)tetrahydrofuran-3,4-diol], the half-maximal inhibitory concentration (IC50) turned out to be 270 nM.

Compound `Nc1ncnc2c1ccn2[C@@H]1C[C@H]([C@H]2OCc3cc(Cl)ccc32)[C@@H](O)[C@H]1O` [Example 2A, (1R,2S,3R,5S)-3-(4-amino-7H-pyrrolo[2,3-d]pyrimidin-7-yl)-5-((R)-5-chloro-1,3-dihydroisobenzofuran-1-yl)cyclopentane-1,2-diol] displayed an IC50 of 680 nM.

The compound `Nc1ncnc2c1ccn2[C@@H]1C[C@H]([C@H]2OC(=O)c3cc(Cl)ccc32)[C@@H](O)[C@H]1O` [Example 3B, (R)-3-((1S,2R,3S,4R)-4-(4-amino-6H-7I4-pyrrolo[2,3-d]pyrimidin-7-yl)-2,3-dihydroxycyclopentyl)-6-chloroisobenzofuran-1(3H)-one, hydrochloride] showed a half-inhibitory concentration (IC50) of 1020 nM.

In the case of `Cc1ncnc2c1ccn2[C@@H]1O[C@H]([C@@H]2OCc3ccc(Cl)cc32)[C@@H](O)[C@H]1O` [Example 15, (2S,3S,4R,5R)-2-((R)-6-chloro-1,3-dihydroisobenzofuran-1-yl)-5-(4-methyl-7H-pyrrolo[2,3-d]pyrimidin-7-yl)tetrahydrofuran-3,4-diol], the concentration for half-maximal inhibition (IC50) is 1 nM.

Compound `COC1Cc2cc(Cl)ccc2[C@H]([C@H]2O[C@@H](n3ccc4c(N)ncnc43)[C@H](O)[C@@H]2O)O1` (stereo partly drawn) [Example 42, (2R,3R,4S,5S)-2-(4-amino-7H-pyrrolo[2,3-d]pyrimidin-7-yl)-5-((1R)-6-chloro-3-methoxyisochroman-1-yl)tetrahydrofuran-3,4-diol] returned an IC50 of 428 nM.

In turn, `Nc1ncnc2c1ccn2[C@@H]1O[C@H]([C@@H]2OC(O)Cc3cc(Cl)ccc32)[C@@H](O)[C@H]1O` (stereo partly drawn) [Example 43, (2R,3R,4S,5S)-2-(4-amino-7H-pyrrolo[2,3-d]pyrimidin-7-yl)-5-((1R)-6-chloro-3-hydroxyisochroman-1-yl)tetrahydrofuran-3,4-diol] gave an IC50 of 19 nM.

Consider `COC1Cc2cc(Cl)ccc2[C@H]([C@H]2O[C@@H](n3ccc4c(C)ncnc43)[C@H](O)[C@@H]2O)O1` (stereo partly drawn) [Example 44, (2S,3S,4R,5R)-2-((1R)-6-chloro-3-methoxyisochroman-1-yl)-5-(4-methyl-7H-pyrrolo[2,3-d]pyrimidin-7-yl)tetrahydrofuran-3,4-diol], for which the IC50 came out at 606 nM.

For the compound `Cc1ncnc2c1ccn2[C@@H]1O[C@H]([C@@H]2OC(O)Cc3cc(Cl)ccc32)[C@@H](O)[C@H]1O` (stereo partly drawn) [Example 50, (2S,3S,4R,5R)-2-((1R)-6-chloro-3-hydroxyisochroman-1-yl)-5-(4-methyl-7H-pyrrolo[2,3-d]pyrimidin-7-yl)tetrahydrofuran-3,4-diol], the midpoint of inhibition, the IC50, lay at 59 nM.

On to `Cc1ncnc2c1ccn2[C@@H]1O[C@H]([C@@H]2OCC(F)(F)c3ccccc32)[C@@H](O)[C@H]1O` [Example 76, (2S,3S,4R,5R)-2-((R)-4,4-difluoroisochroman-1-yl)-5-(4-methyl-7H-pyrrolo[2,3-d]pyrimidin-7-yl)tetrahydrofuran-3,4-diol], for which the IC50 stood at 81 nM.

As for `Nc1ncnc2c1ccn2[C@@H]1O[C@H]([C@@H]2OCCc3c2ccc(F)c3F)[C@@H](O)[C@H]1O` [Example 77, (2R,3R,4S,5S)-2-(4-amino-7H-pyrrolo[2,3-d]pyrimidin-7-yl)-5-((R)-5,6-difluoroisochroman-1-yl)tetrahydrofuran-3,4-diol], the IC50 worked out at 2.82 nM.

For the compound `Nc1ncnc2c1ccn2[C@@H]1O[C@H]([C@@H]2OCC(F)(F)c3ccccc32)[C@@H](O)[C@H]1O` [Example 78, (2R,3R,4S,5S)-2-(4-amino-7H-pyrrolo[2,3-d]pyrimidin-7-yl)-5-((R)-4,4-difluoroisochroman-1-yl)tetrahydrofuran-3,4-diol], the IC50 was determined as 6.7 nM.

In the case of `Cc1ncnc2c1ccn2[C@@H]1O[C@H]([C@@H]2OCCc3c2ccc(F)c3F)[C@@H](O)[C@H]1O` [Example 79, (2S,3S,4R,5R)-2-((R)-5,6-difluoroisochroman-1-yl)-5-(4-methyl-7H-pyrrolo[2,3-d]pyrimidin-7-yl)tetrahydrofuran-3,4-diol], the IC50 amounted to 8.4 nM.

In the case of `Cc1ncnc2c1ccn2[C@@H]1O[C@H]([C@H]2OCCc3cc(Cl)ccc32)[C@@H](O)[C@H]1O` [Example 80, (2S,3S,4R,5R)-2-((S)-6-chloroisochroman-1-yl)-5-(4-methyl-7H-pyrrolo[2,3-d]pyrimidin-7-yl)tetrahydrofuran-3,4-diol], the IC50 was 1010 nM.

Consider `Nc1ncnc2c1ccn2[C@@H]1O[C@H]([C@@H]2OCOCc3cc(Cl)ccc32)[C@@H](O)[C@H]1O` [Example 81, (2R,3R,4S,5S)-2-(4-amino-7H-pyrrolo[2,3-d]pyrimidin-7-yl)-5-((R)-7-chloro-1,5-dihydrobenzo[e][1,3]dioxepin-1-yl)tetrahydrofuran-3,4-diol], for which the IC50 came out at 41.5 nM.

`Nc1ncnc2c1ccn2[C@@H]1O[C@H]([C@@H]2OC(=O)Cc3cc(Cl)ccc32)[C@@H](O)[C@H]1O` [Example 82, (R)-1-((2S,3S,4R,5R)-5-(4-amino-7H-pyrrolo[2,3-d]pyrimidin-7-yl)-3,4-dihydroxytetrahydrofuran-2-yl)-6-chloroisochroman-3-one] registered an IC50 of 585 nM.

In the case of `Nc1ncnc2c1ccn2[C@@H]1O[C@H]([C@H]2OCCc3cc(Cl)sc32)[C@@H](O)[C@H]1O` [Example 91, (2R,3R,4S,5S)-2-(4-amino-7H-pyrrolo[2,3-d]pyrimidin-7-yl)-5-((R)-2-chloro-4,7-dihydro-5H-thieno[2,3-c]pyran-7-yl)tetrahydrofuran-3,4-diol], the IC50 came out at 554 nM.

Turning to `Cc1ncnc2c1ccn2[C@@H]1O[C@H]([C@@H]2OC[C@@H](F)c3cc(Cl)ccc32)[C@@H](O)[C@H]1O` [Example 92, (2S,3S,4R,5R)-2-((1R,4S)-6-chloro-4-fluoroisochroman-1-yl)-5-(4-methyl-7H-pyrrolo[2,3-d]pyrimidin-7-yl)tetrahydrofuran-3,4-diol], the 50% inhibitory concentration (IC50) was found to be 20 nM.

`Nc1ncnc2c1ccn2[C@@H]1O[C@H]([C@@H]2OC[C@@H](F)c3cc(Cl)ccc32)[C@@H](O)[C@H]1O` [Example 93, (2R,3R,4S,5S)-2-(4-aminopyrrolo[2,3-d]pyrimidin-7-yl)-5-[(1R,4S)-6-chloro-4-fluoro-isochroman-1-yl]tetrahydrofuran-3,4-diol] yielded a concentration for half-maximal inhibition (IC50) of 14 nM.

Consider `Cc1ncnc2c1ccn2[C@@H]1O[C@H]([C@@H]2OC[C@H](F)c3cc(Cl)ccc32)[C@@H](O)[C@H]1O` [Example 94, (2R,3R,4S,5S)-2-(4-methylpyrrolo[2,3-d]pyrimidin-7-yl)-5-[(1R,4R)-6-chloro-4-fluoro-isochroman-1-yl]tetrahydrofuran-3,4-diol], for which the concentration for half-maximal inhibition (IC50) worked out at 3.2 nM.

Regarding `Cc1cc2c(cc1Cl)CCO[C@H]2[C@H]1O[C@@H](n2ccc3c(C)ncnc32)[C@H](O)[C@@H]1O` [Example 99, (2S,3S,4R,5R)-2-((R)-6-chloro-7-methylisochroman-1-yl)-5-(4-methyl-7H-pyrrolo[2,3-d]pyrimidin-7-yl)tetrahydrofuran-3,4-diol], the IC50 amounted to 39.6 nM.

Regarding `Cc1cc2c(cc1Cl)CCO[C@H]2[C@H]1O[C@@H](n2ccc3c(N)ncnc32)[C@H](O)[C@@H]1O` [Example 100, (2R,3R,4S,5S)-2-(4-amino-7H-pyrrolo[2,3-d]pyrimidin-7-yl)-5-((R)-6-chloro-7-methylisochroman-1-yl)tetrahydrofuran-3,4-diol], 5.6 nM corresponded to half-maximal inhibition (IC50).

Compound `Cc1ncnc2c1ccn2[C@@H]1O[C@H]([C@@H]2OCCCc3cc(Cl)ccc32)[C@@H](O)[C@H]1O` [Example 101, (2S,3S,4R,5R)-2-((R)-7-chloro-1,3,4,5-tetrahydrobenzo[c]oxepin-1-yl)-5-(4-methyl-7H-pyrrolo[2,3-d]pyrimidin-7-yl)tetrahydrofuran-3,4-diol] registered a half-inhibitory concentration (IC50) of 1580 nM.

Compound `Nc1ncnc2c1ccn2[C@@H]1O[C@H]([C@@H]2OCCCc3cc(Cl)ccc32)[C@@H](O)[C@H]1O` [Example 102, (2R,3R,4S,5S)-2-(4-amino-6H-7I4-pyrrolo[2,3-d]pyrimidin-7-yl)-5-((R)-7-chloro-1,3,4,5-tetrahydrobenzo[c]oxepin-1-yl)tetrahydrofuran-3,4-diol, hydrochloride] returned an IC50 of 6280 nM.
